The target of one assay is human FLAP (Homo sapiens (Human), UniProt P20292). As to the kind of experiment: FLAP binding assay (HTRF format). The note with it: human FLAP-containing Sf-9 membranes, wild type; average of runs. In general terms: In TR-FRET formats the signal depends on donor and acceptor labels being close together.
Assay [1] concerns leukotriene pathway in human whole blood. In words: Human whole blood assay (LTB4, A23187-stimulated). The assay is classed as cell-based. The note with it: Homo sapiens, 0.5 h, human whole blood diluted 1:1 in RPMI, calcium ionophore A23187 7 μg/mL, 30 min. As to the method: The ability of the compounds of the present invention to treat a FLAP-mediated disease and/or disorder, or associated symptoms or complications thereof, was determined using the following procedures. Binding assay data represent the average value obtained from two different assay plates, with samples run in duplicate on each plate. Human whole blood assay data represent a single replicate on an assay plate using whole blood from at least one healthy donor.
An in vitro cellular assay was performed using human whole blood collected in heparin-containing tubes, which was used to test the ability of compounds to modulate the leukotriene pathway in human whole blood. The blood was diluted 1:1 in RPMI medium, pre-incubated for 15 min at 37° Celsius with test compounds at various concentrations, and then stimulated with calcium ionophore, A23187 (7 μg/mL), for 30 min at 37° Celsius. The samples were then centrifuged and plasma was removed. The plasma was diluted in assay buffer and LTB4 levels were measured using a commercial kit (Enzo Life Sciences). The concentration of each compound that was required for half-maximal inhibition (modulation) of […] (IC50) was calculated by a 4-parameter equation using the program GraphPad Prism (GraphPad software). For analysis, data are imported into 3DX and aggregated as the average of duplicates of the calculated ratios in order to calculate Ki and IC50 values. Numbers in parentheses are the number of runs for the assay.

The source of these data is patent publication US9695149B2, “1,2,6-substituted benzimidazoles as flap modulators” (JANSSEN PHARMACEUTICA NV, priority 2013, dated 2017).

pIC50, pKi: −log10 of the molar value. Where a name gives a salt, the structure may show the parent alone. Some results are limits rather than exact numbers.

human FLAP, sequence (P20292 whole entry): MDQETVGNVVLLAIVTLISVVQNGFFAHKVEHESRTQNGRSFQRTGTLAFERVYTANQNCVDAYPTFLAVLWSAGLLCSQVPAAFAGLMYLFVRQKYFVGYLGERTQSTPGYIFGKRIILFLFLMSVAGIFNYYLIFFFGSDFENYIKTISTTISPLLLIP

The term pKi denotes the Ki on a negative log10 scale, so that one unit is a factor of ten. A higher pKi goes with a small Ki. Broadly, the pIC50 is −log10 of the IC50, conventionally taken in molar units. As to `CCC(CC)(Cc1nc2ccc(OCc3ccc(C)cn3)cc2n1Cc1ccc(N2CCC(F)(F)C2)cc1)C(=O)O` [Example 226, 2-({1-[4-(3,3-Difluoropyrrolidin-1-yl)benzyl]-6-[(5-methylpyridin-2-yl)methoxy]-1H-benzimidazol-2-yl}methyl)-2-ethylbutanoic acid], the pKi at human FLAP is 7.77. Also, in assay [1], the pIC50 is about 5.49.
The molecule `Cc1ccc(COc2cc(F)c3nc(CC4(C(=O)O)CCCC4)n(Cc4cccc(Br)c4)c3c2)nc1` [Example 230, 1-({1-(3-Bromobenzyl)-4-fluoro-6-[(5-methylpyridin-2-yl)methoxy]-1H-benzimidazol-2-yl}methyl)cyclopentanecarboxylic acid as the trifluoroacetic salt] gave a pKi on human FLAP of 7.14. In addition, the pIC50 in assay [1] was under 4.52.
At human FLAP, `Cc1ccc(COc2cc(F)c3nc(CC4(C(=O)O)CCCC4)n(Cc4ccccc4Br)c3c2)nc1` [Example 231, 1-({1-(2-Bromobenzyl)-4-fluoro-6-[(5-methylpyridin-2-yl)methoxy]-1H-benzimidazol-2-yl}methyl)cyclopentanecarboxylic acid as the trifluoroacetic salt] gave a negative-log Ki (pKi) of 6.74. Further, the pIC50 in assay [1] was under 4.52.
